Holding throughout (assay type): biochemical
The target of one assay is T1, hSULT1A3 (Homo sapiens, UniProt P0DMM9).
T1 construct: 6-histidine tag (N); TEV site (N); made in house; host or cells: Escherichia coli BL21 (DE3), pET29a(+)
Put plainly: Fluorescence-based microplate inhibition assay, hSULT1A3-catalyzed HN-241 4-O-sulfation. The following applies: for activity at 10 µM / Residue activity (%) hSULT1A3: test compound 10 μM, HN-241 10 μM, 15 min; for activity at 10 µM: read-out: Residue activity (%) hSULT1A3.

In another assay the target is T2, hSULT1A2 (Homo sapiens, UniProt P50226).
T2 construct: 6-histidine tag (N); TEV site (N); made in house; host or cells: Escherichia coli BL21 (DE3), pET29a(+)
T2 sequence (P50226 whole entry): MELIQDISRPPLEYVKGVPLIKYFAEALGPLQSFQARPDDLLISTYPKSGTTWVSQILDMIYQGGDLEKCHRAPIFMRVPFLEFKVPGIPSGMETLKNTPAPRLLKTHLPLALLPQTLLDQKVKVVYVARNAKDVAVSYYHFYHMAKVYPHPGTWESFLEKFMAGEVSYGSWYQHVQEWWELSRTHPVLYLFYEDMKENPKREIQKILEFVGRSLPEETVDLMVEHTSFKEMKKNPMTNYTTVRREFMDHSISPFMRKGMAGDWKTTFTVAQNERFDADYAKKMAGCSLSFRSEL
Briefly: Fluorescence-based microplate inhibition assay, hSULT1A2-catalyzed HN-241 4-O-sulfation. The following applies: for remaining activity at 10 µM: 0.25 h, read-out: Residue activity (%) hSULT1A2; for remaining activity at 10 µM / Residue activity (%) hSULT1A2: test compound 10 μM, HN-241 5 μM, 15 min.

The target in another assay is T3, hSULT1A1 (Homo sapiens, UniProt P50225).
T3 construct: 6-histidine tag (N); TEV site (N); made in house; host or cells: Escherichia coli BL21 (DE3), pET29a(+)
T3 sequence (P50225 whole entry): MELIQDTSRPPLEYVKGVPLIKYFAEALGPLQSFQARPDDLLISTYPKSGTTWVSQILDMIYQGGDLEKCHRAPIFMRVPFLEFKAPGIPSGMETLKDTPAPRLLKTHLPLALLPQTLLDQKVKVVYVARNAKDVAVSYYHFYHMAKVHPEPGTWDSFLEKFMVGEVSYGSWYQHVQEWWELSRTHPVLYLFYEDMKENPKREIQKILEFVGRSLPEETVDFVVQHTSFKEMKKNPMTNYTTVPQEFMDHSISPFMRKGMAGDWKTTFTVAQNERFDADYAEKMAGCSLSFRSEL
Briefly: Fluorescence-based microplate inhibition assay, hSULT1A1-catalyzed HN-241 4-O-sulfation.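 On all read-outs here: reaction started with 200 µM PAPS at 37 °C, fluorescence read continuously (Ex 350 nm, Em 450 nm), activity expressed relative to DMSO-only control without inhibitor.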 Conditions: for activity at 1 µM / Residue activity (%) hSULT1A1: test compound 1 μM, HN-241 1 μM, 15 min; for activity at 1 µM: read-out: Residue activity (%) hSULT1A1.

Results on 17 molecules are retold here after paper PMC11202169, “A Novel Fluorescence-Based Microplate Assay for High-Throughput Screening of hSULT1As Inhibitors” (Biosensors, 2024).

T1 sequence (P0DMM9 whole entry): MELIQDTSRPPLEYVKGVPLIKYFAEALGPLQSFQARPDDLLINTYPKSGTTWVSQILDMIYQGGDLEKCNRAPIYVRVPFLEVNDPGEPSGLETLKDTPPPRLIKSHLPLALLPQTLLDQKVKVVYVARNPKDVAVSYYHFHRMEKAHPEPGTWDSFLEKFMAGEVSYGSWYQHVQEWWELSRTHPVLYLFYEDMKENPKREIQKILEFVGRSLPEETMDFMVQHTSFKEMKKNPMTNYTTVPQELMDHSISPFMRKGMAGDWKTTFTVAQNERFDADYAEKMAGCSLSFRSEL

In the case of `COc1cc2c(c(OC)c1OC)C(=O)c1c(cc(C)c(O)c1OC)C2=O` [Chrysoobtusin], the IC50 (as a rule, the concentration needed to halve the response being measured) against hSULT1A3 (hSULT1A3-catalyzed HN-241 4-O-sulfation) amounted to 1520 ± 79.1 nM. The activity at 10 µM at hSULT1A3 came to 5.28%. Further, the remaining activity at 10 µM on hSULT1A2 stood at 0.09%. At hSULT1A1, the activity at 1 µM came out at 1.84%.
As to `Oc1cc(O)c2c(c1)O[C@@H](c1ccc(O)c(O)c1)[C@H](O)C2` [(-)-Catechin], the activity at 10 µM at hSULT1A3 amounted to 46.8%. In addition, the remaining activity at 10 µM at hSULT1A2 is 101%. At hSULT1A1, the activity at 1 µM amounted to 41.4%.
For `COc1cc(O)c(CC=C(C)C)c2c1C(=O)CC(c1ccc(O)cc1)O2` (stereo not drawn) [Isoxanthohumol] the same measures were 88%, 68.4% and 15.8%.
For `CC(C)=CCOc1c2ccoc2cc2oc(=O)ccc12` [Isoimperatorin] the same measures were 92.1%, 106% and 92.5%.
Turning to `COc1cc(-c2oc3cc(O)cc(O)c3c(=O)c2O[C@@H]2O[C@H](CO[C@@H]3O[C@@H](C)[C@H](O)[C@@H](O)[C@H]3O)[C@@H](O)[C@H](O)[C@H]2O)ccc1O` [Narcissoside], at hSULT1A3, the “Residue activity (%) hSULT1A3” value is 60.08%. The “Residue activity (%) hSULT1A2” value on hSULT1A2 turned out to be 86.78%. In addition, at hSULT1A1, the “Residue activity (%) hSULT1A1” value is given as 99.20%.
Consider `COc1ccc(-c2oc3c(CC=C(C)C)c(O[C@@H]4O[C@H](CO)[C@@H](O)[C@H](O)[C@H]4O)cc(O)c3c(=O)c2O)cc1` [Icariside I], for which, on hSULT1A3, the “Residue activity (%) hSULT1A3” value is reported as 104.97%. Also, the “Residue activity (%) hSULT1A2” value at hSULT1A2 is recorded as 103.62%. For the same molecule, the “Residue activity (%) hSULT1A1” value at hSULT1A1 was determined as 91.81%.
On to `C[C@@H]1O[C@@H](OC[C@H]2O[C@@H](Oc3cc(O)c4c(c3)O[C@H](c3ccc(O)c(O)c3)CC4=O)[C@H](O)[C@@H](O)[C@@H]2O)[C@H](O)[C@H](O)[C@H]1O` [Eriocitrin], for which the activity at 10 µM on hSULT1A3 turned out to be 104%. Besides, on hSULT1A2, the remaining activity at 10 µM was found to be 111%. Also, the activity at 1 µM on hSULT1A1 came to 65.5%.
Turning to `C/C1=C\CC(C)(C)/C=C/C(=O)/C(C)=C/CC1` [Zerumbone], the activity at 10 µM at hSULT1A3 is 108%. Besides, on hSULT1A2, the remaining activity at 10 µM was found to be 113%. The activity at 1 µM at hSULT1A1 amounted to 102%.
As for `COc1c(O)cc2occ(-c3ccc(O)cc3)c(=O)c2c1O` [Tectorigenin], at hSULT1A3, the activity at 10 µM was found to be 86.8%. In addition, on hSULT1A2, the remaining activity at 10 µM is 4.26%. Moreover, the activity at 1 µM on hSULT1A1 was determined as 4.17%.
Turning to `O=C1C[C@@H](c2ccc(O)cc2)Oc2cc(O)ccc21` [Liquiritigenin], the “Residue activity (%) hSULT1A3” value at hSULT1A3 amounted to 76.68%. Further, on hSULT1A2, the “Residue activity (%) hSULT1A2” value was 25.92%. The “Residue activity (%) hSULT1A1” value on hSULT1A1 is on record as 58.91%.
The corresponding values for `CC(C)=CCC[C@@](C)(O)[C@H]1CC[C@]2(C)[C@@H]1[C@H](O)C[C@@H]1[C@@]3(C)CC[C@H](O)C(C)(C)[C@@H]3[C@@H](O[C@@H]3O[C@H](CO)[C@@H](O)[C@H](O)[C@H]3O[C@@H]3OC[C@@H](O)[C@H](O)[C@H]3O)C[C@]12C` [20(R)-Notoginsenoside R2] are 100.25%, 109.60% and 110.54%.
For Sennosides, the “Residue activity (%) hSULT1A3” value at hSULT1A3 is given as 19.21%. Further, at hSULT1A2, the “Residue activity (%) hSULT1A2” value stood at 3.06%. Moreover, at hSULT1A1, the “Residue activity (%) hSULT1A1” value was 26.92%.
Regarding `CC(C)=CCC[C@](C)(O)[C@H]1CC[C@]2(C)[C@@H]1[C@H](O)C[C@@H]1[C@@]3(C)CC[C@H](O)C(C)(C)[C@@H]3[C@@H](O[C@@H]3O[C@H](CO)[C@@H](O)[C@H](O)[C@H]3O)C[C@]12C` [Ginsenoside Rh1], the activity at 10 µM at hSULT1A3 is 100%. In addition, on hSULT1A2, the remaining activity at 10 µM is 96.5%. For the same molecule, the activity at 1 µM at hSULT1A1 came out at 114%.
As to `O=C1c2cccc(O)c2C(=O)c2c(O)cc(CO)cc21` [Aloeemodin], the activity at 10 µM at hSULT1A3 is 61.3%. Further, the remaining activity at 10 µM at hSULT1A2 was found to be 0%. In addition, the midpoint of inhibition against hSULT1A2 (hSULT1A2-catalyzed HN-241 4-O-sulfation), the IC50, lay at 118 ± 7.2 nM. In addition, the activity at 1 µM on hSULT1A1 came to 0.21%.
For the molecule `O=c1c(O)c(-c2ccc(O)cc2O)oc2cc(O)cc(O)c12` [Morin], the activity at 10 µM on hSULT1A3 stood at 55.7%. Also, the remaining activity at 10 µM on hSULT1A2 is 4.73%. Besides, the activity at 1 µM at hSULT1A1 turned out to be 50.7%.
In the case of `COc1ccc(-c2cc(=O)c3c(O)cc(O)c(-c4cc(-c5cc(=O)c6c(O)cc(OC)cc6o5)ccc4OC)c3o2)cc1` [Sciadopitysin], the “Residue activity (%) hSULT1A3” value on hSULT1A3 was 62.24%. Further, the “Residue activity (%) hSULT1A2” value on hSULT1A2 worked out at 2.03%. In addition, the “Residue activity (%) hSULT1A1” value at hSULT1A1 is reported as 27.69%.
With `COc1c(/C=C/C(=O)c2ccc(O)c(CC=C(C)C)c2)ccc(O)c1O` [Licochalcone D], the activity at 10 µM on hSULT1A3 amounted to 30.9%. The remaining activity at 10 µM at hSULT1A2 was 0.21%. For the same molecule, the IC50 against hSULT1A1 (hSULT1A1-catalyzed HN-241 4-O-sulfation) came to 5.37 ± 0.18 nM. Further, the activity at 1 µM at hSULT1A1 came to 0%.
